We go through two molecules from patent publication US20250314638A1, “OBLIQUE LINE SCANNER SYSTEMS AND METHODS FOR HIGH THROUGHPUT SINGLE MOLECULE TRACKING IN LIVING CELLS” (EIKON THERAPEUTICS, INC., priority 2022, published 2025).

The test has as its system Halo-PCNA U2OS cells. Briefly: Cell cycle block validated by machine-learning cell cycle phase assignment in Halo-PCNA cells. It is filed as cell-based. Particulars: 2 mM Thymidine (S-phase block) or (G2-M block). As for the experimental part: Time-lapse microscopy was conducted on Halo-PCNA labeled with 50 nM JFX650, to achieve near-saturating labeling, for 12 hours at 12 frames per hour (FIG. 21A). A machine learning model was then trained using both manually assigned cell stages and time-based progression resulting in both a G1, early S, mid S, late S, G2 and mitosis classifier as well as a regression prediction across the continuum of the cell cycle (FIG. 21B). The predicted cell cycle classification performed well as compared to manual annotation (FIG. 21C). Clear progression of individual cells through the cell cycle was observed when regression prediction was plotted across the time series (FIG. 21D). […] When cells in each cell phase were analyzed separately, it became apparent that the slow-moving population of PCNA was exclusively found in cell predicted to be in S-phase and that there was a marked decrease in the fast-moving population (FIG. 20E). Mean diffusion coefficient of PCNA was then measured for 4,081 individual cells to characterize heterogeneity across the cell population, which is described in large part by cell cycle (FIG. 20F).
Cell cycle as provided above can be automatically determined using an image (e.g., an image of JF549-labeled PCNA). […]

Take `Cc1cn([C@H]2C[C@H](O)[C@@H](CO)O2)c(=O)[nH]c1=O` [thymidine]: the “fraction of cells assigned to cell cycle phases” value was “expected enrichment in the fraction of cells assigned to the respective cell phases”.

For `O=C1NC(=NCc2cccs2)S/C1=C\c1ccc2ncccc2c1` [RO-3306], the “fraction of cells assigned to cell cycle phases” value was “expected enrichment in the fraction of cells assigned to the respective cell phases”.
